Measurements taken from patent US20240092819A1, “NOVEL LIGANDS FOR ASIALOGLYCOPROTEIN RECEPTOR” (SANOFI, priority 2020, published 2024).
Structures can show the parent of a compound that is named as a salt.

target: ASGPR (Rattus norvegicus (Rat), UniProt P02706+P08290); assay: Fluorescent polarization (FP) ASGPR binding assay; details: Table K, monomeric compounds; competition with 1 nM Cy5-labeled trimeric GalNAc tracer; Wistar rat liver membrane
From the text: Fluorescent Polarization (FP) ASGPR Binding Assay to Determine the Binding Affinities of ASGPR-Targeted Small Molecules:
The technique of fluorescence polarization (FP) is based on the observation that when a fluorescently labeled molecule is excited by polarized light, it emits light with a degree of polarization that is inversely proportional to the rate of molecular rotation. This property of fluorescence can be used to measure the interaction of a small labeled ligand with a larger protein and provides a basis for direct and competition binding assays.
The assay was performed in 384-well microplates (GREINER bio-one, 781076). Membrane prepared from Wistar rat liver was used as a source of ASGPR and Cy5 fluorophore-labeled trimeric GauNAc-tool compound was used as a tracer.
In the FP binding experiments, 15 μltest sample was mixed with 15 μl of […] liver membrane. After 10 minutes incubation at room temperature, 10 μl of the Cy5-labeled trimeric GalNAc-tool compound (final concentration: 1 nM) were added. The FP signals were recorded after 30 minutes incubation at room temperature at Ex. 612 nm/Em. 670 with PheraStar FXS (BMG Biotech). The optimal FP buffer was 50 mM Tris, pH 7.4; 3 mM CaCl2; 0.04% Triton X100; 0,05% BSA.

ASGPR, sequence (P02706 whole entry): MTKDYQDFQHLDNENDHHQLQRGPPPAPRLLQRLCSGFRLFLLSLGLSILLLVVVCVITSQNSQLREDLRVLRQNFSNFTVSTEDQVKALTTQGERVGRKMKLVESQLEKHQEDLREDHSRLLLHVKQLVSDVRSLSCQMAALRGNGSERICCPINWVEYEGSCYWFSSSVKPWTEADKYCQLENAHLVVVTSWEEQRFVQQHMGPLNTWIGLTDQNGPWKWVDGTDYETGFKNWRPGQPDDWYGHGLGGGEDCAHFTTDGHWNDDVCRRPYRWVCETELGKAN
ASGPR, sequence (P08290 whole entry): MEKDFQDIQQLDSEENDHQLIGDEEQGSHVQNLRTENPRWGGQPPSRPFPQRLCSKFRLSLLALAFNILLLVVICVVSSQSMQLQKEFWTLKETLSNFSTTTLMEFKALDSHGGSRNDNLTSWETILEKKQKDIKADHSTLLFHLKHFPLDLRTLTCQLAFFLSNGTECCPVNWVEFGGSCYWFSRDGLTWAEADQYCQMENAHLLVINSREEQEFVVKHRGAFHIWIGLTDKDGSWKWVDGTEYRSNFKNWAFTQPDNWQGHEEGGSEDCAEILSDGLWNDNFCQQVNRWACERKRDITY

| Compound | IC50 |
| --- | --- |
| CC(=O)N[C@H]1CN(C(=O)CCCCC(=O)OCc2ccccc2)[C@H](COC(C)(C)C)[C@H](O)[C@@H]1O [Compound 160, benzyl 6-[(2R,3S,4R,5S)-5-acetamido-2-(tert-butoxymethyl)-3,4-dihydroxy-1-piperidyl]-6-oxo-hexanoate] | 1050 µM |
| CC(=O)N[C@H]1CN(C(=O)OCc2ccccc2)C[C@H](O)[C@@H]1O [Compound 121, benzyl (3S,4R,5S)-3-acetamido-4,5-dihydroxy-piperidine-1-carboxylate] | 563 µM |
| CC(=O)N[C@H]1CN[C@H](COC(=O)CCCCC(=O)OCc2ccccc2)[C@H](O)[C@@H]1O [Compound 161, 06-[[(2R,3S,4R,5S)-5-acetamido-3,4-dihydroxy-2-piperidyl]methyl] 01-benzyl hexanedioate] | 161 µM |
| CCCCNC(=O)C[C@H]1O[C@@H](n2cnc3c(=O)[nH]c(N)nc32)[C@H](O)[C@@H]1O [Compound 73, 2-[(2R,3S,4R,5R)-5-(2-Amino-6-oxo-1H-purin-9-yl)-3,4-dihydroxy-tetrahydrofuran-2-yl]-N-butyl-acetamide] | 1920 µM |
| O=C1[C@H](O)[C@H](O)[C@@H](n2cc(COc3ccccc3)nn2)CN1CCCCCCOCc1ccccc1 [Compound 140, (3R,4R,5S)-1-(6-benzyloxyhexyl)-3,4-dihydroxy-5-[4-(phenoxymethyl)triazol-1-yl]piperidin-2-one] | 658 µM |
| CC(=O)N[C@H]1CN(C(=O)CCCCCO)C[C@H](O)[C@@H]1O [Compound 129, N-[(3S,4R,5S)-4,5-dihydroxy-1-(6-hydroxyhexanoyl)-3-piperidyl]acetamide] | 585 µM |
| O=C(CCCCCOCc1ccccc1)N1C[C@H](O)[C@H](O)[C@@H](n2cc(COc3ccccc3)nn2)C1 [Compound 131, 6-benzyloxy-1-[(3S,4R,5S)-3,4-dihydroxy-5-[4-(phenoxy-methyl)triazol-1-yl]-1-piperidyl]hexan-1-one] | 1770 µM |
| CCC[C@@H]1[C@H](O)[C@H](O)[C@@H](NC(C)=O)CN1C(=O)CCCCC(=O)OCc1ccccc1 [Compound 146, benzyl 6-[(2R,3S,4R,5S)-5-acetamido-3,4-dihydroxy-2-propyl-1-piperidyl]-6-oxo-hexanoate] | 488 µM |
| CCC[C@@H]1[C@H](O)[C@H](O)[C@@H](NC(C)=O)CN1C(=O)CCCCC(=O)O [Compound 148, 6-[(2R,3S,4R,5S)-5-acetamido-3,4-dihydroxy-2-propyl-1-piperidyl]-6-oxo-hexanoic acid] | 370 µM |
| CN(C)C(=O)C[C@H]1O[C@@H](n2cnc3c(=O)[nH]c(N)nc32)[C@H](O)[C@@H]1O [Compound 72, 2-[(2R,3S,4R,5R)-5-(2-Amino-6-oxo-1H-purin-9-yl)-3,4-dihydroxytetrahydrofuran-2-yl]-N,N-dimethyl-acetamide] | 89 µM |
| CNC(=O)C[C@H]1O[C@@H](n2cnc3c(=O)[nH]c(N)nc32)[C@H](O)[C@@H]1O [Compound 71, 2-[(2R,3S,4R,5R)-5-(2-Amino-6-oxo-1H-purin-9-yl)-3,4-dihydroxy-tetrahydrofuran-2-yl]-N-methyl-acetamide] | 605 µM |
| CC(=O)N[C@H]1CN(C(=O)CCCCC(=O)OCc2ccccc2)C[C@H](O)[C@@H]1O [Compound 112, benzyl 6-[(3S,4R,5S)-3-acetamido-4,5-dihydroxy-1-piperidyl]-6-oxo-hexanoate] | 344 µM |
| CC(=O)N[C@H]1CN(C(=O)CCCCC(=O)OCc2ccccc2)[C@@H](CO)[C@H](O)[C@@H]1O [Compound 162, benzyl 6-[(2S,3S,4R,5S)-5-acetamido-3,4-dihydroxy-2-(hydroxymethyl)-1-piperidyl]-6-oxo-hexanoate] | 576 µM |
| CC(=O)N[C@H]1CN(C(=O)CCCCCOCc2ccccc2)C[C@H](O)[C@@H]1O [Compound 128, N-[(3S,4R,5S)-1-(6-benzyloxyhexanoyl)-4,5-dihydroxy-3-piperidyl]acetamide] | 451 µM |

Results, then the compound that gave them:

| IC50 | Compound |
| --- | --- |
| 129 µM | CC(C)C(=O)Nc1nc2c(ncn2[C@@H]2O[C@H](CO)[C@@H](O)[C@H]2O)c(=O)[nH]1 [Compound 219, N-Isobuturylguanosine] |
| 545 µM | CC(=O)N[C@H]1C(O)O[C@H](CO)[C@H](O)[C@@H]1O (stereo partly drawn) [Compound 193, N-[(3R,4R,5R,6R)-2,4,5-trihydroxy-6-(hydroxymethyl)-tetrahydropyran-3-yl]acetamide, reference compound] |
| 513 µM | Nc1nc2c(ncn2[C@@H]2O[C@H](CO)[C@@H](O)[C@H]2O)c(=O)[nH]1 [Compound 194, 2-amino-9-[(2R,3R,4S,5R)-3,4-dihydroxy-5-(hydroxymethyl)-tetrahydrofuran-2-yl]-1H-purin-6-one] |
| 628 µM | CC(=O)N[C@H]1CN(CCCCCCOCc2ccccc2)[C@H](CO)[C@H](O)[C@@H]1O [Compound 180, N-[(3S,4R,5S,6R)-1-(6-benzyloxyhexyl)-4,5-dihydroxy-6-(hydroxymethyl)-3-piperidyl]acetamide] |
| 1940 µM | CN(C)c1nc2c(ncn2[C@@H]2O[C@H](CO)[C@@H](O)[C@H]2O)c(=O)[nH]1 [Compound 198, 9-[(2R,3R,4S,5R)-3,4-dihydroxy-5-(hydroxymethyl)-tetrahydro-furan-2-yl]-2-(dimethylamino)-1H-purin-6-one] |

same assay, conditions: Table L, targeted nucleosides; competition with 1 nM Cy5-labeled trimeric GalNAc tracer; Wistar rat liver membrane

| IC50 | Compound |
| --- | --- |
| 1850 µM | Cc1cn([C@H]2CN(CCOCCOCCOP(=O)(O)OC[C@H]3O[C@@H](n4cnc5c(=O)[nH]c(N)nc54)[C@H](O)[C@@H]3O)CC(CO)(CO)O2)c(=O)[nH]c1=O [Compound 258, [(2R,3S,4R,5R)-5-(2-Amino-6-oxo-1H-purin-9-yl)-3,4-di-hydroxy-tetrahydrofuran-2-yl]methyl 2-[2-[2-[(6R)-2,2-bis(hydroxymethyl)-6-(5-methyl-2,4-dioxo-pyrimidin-1-yl)morpholin-4-yl]ethoxy]ethoxy]ethyl hydrogen phosphate-sodium salt] |
| 1240 µM | Cc1cn([C@H]2CN(CCOCCOCCOC[C@H]3O[C@@H](n4cnc5c(=O)[nH]c(N)nc54)[C@H](O)[C@@H]3O)CC(CO)(CO)O2)c(=O)[nH]c1=O [Compound 254, 1-[(2R)-4-[2-[2-[2-[[(2R,3S,4R,5R)-5-(2-Amino-6-oxo-1H-purin-9-yl)-3,4-dihydroxy-tetrahydrofuran-2-yl]methoxy]ethoxy]ethoxy]ethyl]-6,6-bis-(hydroxymethyl)-morpholin-2-yl]-5-methyl-pyrimidine-2,4-dione] |

same assay, conditions: Table M, trimeric compounds; competition with 1 nM Cy5-labeled trimeric GalNAc tracer; Wistar rat liver membrane

| IC50 | Compound |
| --- | --- |
| 0.563 µM | CC(=O)N[C@H]1CN(C(=O)CCCCC(=O)NCCCNC(=O)CCOCC(COCCC(=O)NCCCNC(=O)CCCCC(=O)N2C[C@H](NC(C)=O)[C@@H](O)[C@@H](O)C2)(COCCC(=O)NCCCNC(=O)CCCCC(=O)N2C[C@H](NC(C)=O)[C@@H](O)[C@@H](O)C2)NC(=O)CCCCCCCCCCCOCc2ccccc2)C[C@H](O)[C@@H]1O [Compound 267, N,N′,N′-((3S,3′S,3″S,4R,4′R,4″R,5S,5′S,5″S)-(17-(12-(benzyloxy)dodecanamido)-6,12,22,28-tetraoxo-17-((3-oxo-3-((3-(6-oxopentanamido)propyl)amino)propoxy)methyl)-15,19-dioxa-7,11,23,27-tetraazatritriacontanedioyl)tris(4,5-dihydroxypiperidine-1,3-diyl))triacetamide] |
| 0.335 µM | CC(=O)NC1CN(C(=O)CCCC(=O)NCCCNC(=O)CCOCC(COCCC(=O)NCCCNC(=O)CCCC(=O)N2C[C@H](NC(C)=O)[C@@H](O)[C@@H](O)C2)(COCCC(=O)NCCCNC(=O)CCCC(=O)N2C[C@H](NC(C)=O)[C@@H](O)[C@@H](O)C2)NC(=O)CCCCCCCCCCCOCc2ccccc2)C[C@H](O)[C@@H]1O (stereo partly drawn) [Compound 268, N,N′,N′-((3S,3′S,3″S,4R,4′R,4″R,5S,5′S,5″S)-(16-(12-(benzyloxy)dodecanamido)-5,11,21,27-tetraoxo-16-((3-oxo-3-((3-(5-oxopentanamido)propyl)amino)propoxy)methyl)-14,18-dioxa-6,10,22,26-tetraazahentriacontanedioyl)tris(4,5-dihydroxy-piperidine-1,3-diyl))triacetamide] |

| Compound | IC50 |
| --- | --- |
| CC(=O)N[C@H]1CN(C(=O)CCC(=O)NCCCNC(=O)CCOCC(COCCC(=O)NCCCNC(=O)CCC(=O)N2C[C@H](NC(C)=O)[C@@H](O)[C@@H](O)C2)(COCCC(=O)NCCCNC(=O)CCC(=O)N2C[C@H](NC(C)=O)[C@@H](O)[C@@H](O)C2)NC(=O)CCCCCCCCCCCOCc2ccccc2)C[C@H](O)[C@@H]1O [Compound 269, N,N′,N′-((3S,3′S,3″S,4R,4′R,4″R,5S,5′S,5″S)-(15-(12-(benzyloxy)dodecanamido)-4,10,20,26-tetraoxo-15-((3-oxo-3-((3-(4-oxobutanamido)propyl)amino)pro-poxy)methyl)-13,17-dioxa-5,9,21,25-tetraazanonacosanedioyl)tris(4,5-dihydroxypiperidine-1,3-diyl))triacetamide] | 0.598 µM |
